Test system: American bullfrog Rana catesbeiana tadpoles
Experiment: Loss of righting reflex (LORR) in tadpoles
Format: in vivo
Conditions: Aquarana catesbeiana; text refers to Table 2; read-out: EC50 for GABAaR potentiation in tadpoles
Work on `CCOC(=O)c1cc(-c2ccc(OC)cc2)n(-c2ccc(Cl)cc2)c1C` [Compound A] yielded an EC50 of about 1.5 µM.

Test system: native GABA-A receptors
Experiment: Electrophysiology in hippocampal brain slices (paired pulse inhibition, CA1)
Format: cell-based
Conditions: rat hippocampal slice
Procedure: Brain slices were prepared from male Sprague-Dawley rats that had been deeply anesthetized with isoflurane. The brain was quickly removed and placed in ice-cold artificial cerebrospinal fluid (ACSF) that was saturated with 95% O2 and 5% CO2 (carbogen) to achieve a pH of 7.4. The ACSF was composed of the following ions dissolved in spectrophotometry grade water (EMD Chemicals Inc., Billerica, Mass.) and stated in millimolar concentrations: Na 151.25, Cl 131.5, HCO3 26, K 2.5, Ca 2, Mg 2, SO4 2, H2PO4 1.25, and glucose 10. Coronal brain slices were prepared using a vibratome (Model 1500, Technical Products International Inc., St. Louis, Mo.) and 400-μm-thick slices were hemisected and placed on cellulose filter papers. They were stored at a gas (carbogen)-liquid (ACSF) interface in a holding chamber for at least 1 hour before use. […]
Evoked field potentials were measured using thin-walled glass pipettes (1.0 ID, 1.5 OD; Garner Glass Co., Claremont, Calif.) filled with ACSF. […]
Recorded signals were conditioned using an Axoclamp 2B preamplifier (Axon Instruments, Sunnyvale, Calif.) with a bandpass from DC to 30 kHz and gain of ×10. […] Responses were measured and plotted in real time to ensure that stable baselines (<±2.0% variation) were recorded for at least 20 minutes before the experiments began. […]
In the case of `CCOC(=O)c1cc(-c2ccc(Cl)cc2)n(-c2ccccc2)c1C` [Compound B], the “concentration at which paired pulse inhibition was noted” value is reported as 100 µM.

Test system: GABAaR
Experiment: not given
Conditions: known literature value; read-out: EC50 for GABAaR potentiation; cited from earlier work
In the case of `CCOC(=O)c1cn(-c2ccc(Cl)cc2Cl)c(-c2ccc(Br)cc2)n1` [Compound 1n], the EC50 is listed as 0.19 µM.
In the case of `Oc1ccccc1` [phenol], the EC50 is given as 920 µM.

Test system: American bullfrog Rana catesbeiana tadpoles
Experiment: Loss of righting reflex (LORR) in tadpoles
Format: in vivo
Conditions: Aquarana catesbeiana, water bath exposure
Procedure: Anesthesia is defined as the combination of a lack of movement to a given stimulus, lack of awareness, amnesia and analgesia. The surrogate of such is manifest in the tadpole as the loss of righting reflex (LORR). Early prelimb-bud stage American bullfrog Rana catesbeiana tadpoles (5 per 50 ml beaker) were placed in room temperature oxygenated water buffered with 2.5 mM Tris HCl buffer (pH=7.4) and containing a concentration of test compound ranging from 0.11 uM-1 mM. Tadpoles were manually tipped every 5 min with a glass rod or stream of water until their righting reflex response stabilized or 120 minutes elapses. […] At the end of each study, tadpoles were transferred to fresh water to assess whether the anesthetic action was reversible.
For `Cc1cc(C(=O)OCc2c(Cl)cccc2Cl)c(C)n1-c1ccccc1` [C], the EC50 was about 5 µM.
In the case of `CCOC(=O)c1cc(-c2ccc(OC)cc2)n(-c2ccc(Cl)cc2)c1C` [Compound A], the EC50 is reported as 1.5 µM.
With `CCOC(=O)c1cc(-c2ccc(Cl)cc2)n(-c2ccccc2)c1C` [Compound B] the EC50 was 0.53 µM.
`Cc1cc(C(=O)OCc2ccc(Cl)cc2Cl)c(C)n1-c1ccccc1` [D] gave an EC50 of about 20 µM.
With `Cc1cc(C(=O)OCc2ccc(Cl)cc2)c(C)n1-c1ccc(F)cc1` [E] the EC50 was about 40 µM.
`COC(=O)c1cc(-c2ccc(C)c(C)c2)n(-c2ccc(Br)cc2)c1C` [F] gave an EC50 of about 20 µM.
For `COC(=O)c1cc(-c2ccc(C)c(C)c2)n(-c2ccc(F)cc2Br)c1C` [G], the EC50 was about 3 µM.
`COC(=O)c1cc(-c2ccc(C)c(C)c2)n(-c2ccc(Cl)c(Cl)c2)c1C` [H] gave an EC50 of over 40 µM.
In the case of `COC(=O)c1cc(-c2ccc(Br)cc2)n(-c2cccc(Cl)c2C)c1C` [J], the EC50 is reported as over 40 µM.
Work on `COC(=O)c1cc(-c2ccc(Br)cc2)n(-c2ccc(Br)cc2)c1C` [K] yielded an EC50 of about 40 µM.
Molecule `CCOC(=O)c1cc(C)n(-c2cccc(Cl)c2Cl)c1-c1ccccc1` [M] has an EC50 of about 20 µM.

Reference: US10513494B2, “Methods, compounds, and compositions for anesthesia” (THE BOARD OF TRUSTEES OF THE LELAND STANFORD JUNIOR …, priority 2014, dated 2019)
